What was measured:
rat ear oedema = assay: Anti-inflammatory activity: inhibition of rat ear oedema (croton oil); assay type: in vivo; settings: dose 100 μg, topical to ear with 5% croton oil in acetone, male rats, 6 hours
Protocol: (i) Anti-inflammatory Activity--Inhibition of rat ear oedema
The test compounds are dissolved in acetone and 40 ul containing 5% croton oil is applied to the inner surface of each of the ears of 60-80 g male rats. Animals are killed 6 hours later and the ears are removed. Standard size (0.5 cm diameter) discs are punched out and the discs weighed. Mean weight of the ear discs is calculated and from this percentage inhibition of ear inflammation in relation to croton oil alone treated ears are calculated.

[1] = tested on: Adrenocorticotrophic hormone (ACTH); assay: Systemic effects: ACTH suppression in adrenalectomised rats; assay type: in vivo, rat; settings: single intra-tracheal, adrenalectomised male CD rats, plasma ACTH at 4 h
Protocol: (ii) Systemic effects--ACTH suppression in adrenalectomised rats
Male CD rats (90-120 g) were adrenalectomised under Isoflurane anaesthesia and drinking water was supplemented with 0.9% saline. Four days later the animals receive a single intra-tracheal dose (under Isoflurane anaesthesia) of compound suspended in saline (containing 0.2% Tween-80, 0.2 ml) at 10 am. After 4 h animals are sacrificed by administration of Euthetal and blood samples are taken by intra-cardiac puncture and collected into heparinised tubes. The samples are centrifuged (20 minutes at 1000 RPM at 4 deg C.), the plasma is collected and assayed by Radioimmunoassay (RIA) for Adrenocorticotrophic hormone (ACTH) using a DPC double antibody RIA kit. Intact and vehicle control groups were included in each experiment in order to account for diurnal variation in ACTH and effects of vehicle. Results are calculated with respect to the RIA standard curve and expressed as ACTH pg/ml plasma, allowing percentage reduction in ACTH to be calculated.

Compound | % Inhibition (ear inflammation) (rat ear oedema) [%] | % Reduction in ACTH ([1]; dose 500 μg) [%] | % Reduction in ACTH ([1]; dose 1 μg) [%] | % Reduction in ACTH ([1]; dose 5 μg) [%]
CCC(=O)O[C@]1(C(=O)S[C@H]2CCOC2=O)[C@H](C)C[C@H]2[C@@H]3C[C@H](F)C4=CC(=O)C=C[C@]4(C)[C@@]3(F)[C@@H](O)C[C@@]21C [Example 2, 6α,9α-Difluoro-11β-hydroxy-16α-methyl-3-oxo-17α-propionyloxy-androsta-1,4-diene-17β-carbothioic acid S-(2-oxo-tetrahydro-furan-3S-yl)-ester] | 42 | 0 | – | –
CC1(C)O[C@@H]2C[C@H]3[C@@H]4C[C@H](F)C5=CC(=O)C=C[C@]5(C)[C@@]4(F)[C@@H](O)C[C@]3(C)[C@]2(C(=O)CO)O1 [Fluocinolone acetonide] | – | – | 49 | 84

— patent US6197761A, “17β-2-oxo-tetrahydrofuranyl)-carbothioic acid ester, -carboxylic acid ester and -carboxylic acid amide androstane derivatives” (Glaxo Wellcome Inc., priority 1995, dated 2001)
